Data: patent US20230346948A1, “Lipid conjugated peptide inhibitors of PICK1” (University of Copenhagen, priority 2020, published 2023)
Like-named read-outs stand apart in the source and are kept apart here.

What was measured:
[1] = test system: spontaneous inflammatory pain (CFA model); test: Single exposure place preference (sePP), spontaneous pain; type: in vivo, mice
Description: Inflammatory pain (CFA model): Animals were habituated to the experimental room for a minimum of 60 min before initiation of the experiment. Mechanical pain threshold of both hind paws was determined by von Frey measurements. Injury was induced on the right hind paw, whereas the contralateral left hind paw was used as internal control of the animal. […] In the current experiment filaments in ascending order were applied to the frontocentral plantar surface of the hind paws. […] Each von Frey filament was applied five times with adequate resting periods between each application and number of withdrawals recorded. The withdrawal threshold was determined as the von Frey filament eliciting at least 3 positive trials out of the 5 applications in two consecutive filaments. A positive trial was defined as sudden paw withdrawal, flinching and/or paw licking induced by the filament. The inflammatory pain was induced by injection of 50 μL undiluted Complete Freund's Adjuvant (CFA) ([…], Sigma) unilaterally into the intraplantar surface of the right hind paw. All intraplantar injections were performed with an insulin needle (0.3 mL BD Micro-Fine), while the animal was under isoflurane anesthesia (2%) for maximum 60 seconds. […] Statistical analysis: was performed using GraphPad Prism 6.0. Student's t-test. Significance level set to p<0.05. […] All mice from a cage were tested at the same time, but not all given the same treatment. On exposure days, mice were weighed and injected s.c. with peptide (30 μmol/kg) or vehicle (10 μL/g) and immediately placed into the designated compartment for 60 min. The test group was exposed to peptide in the least preferred compartment, and vehicle (PBS) in the preferred compartment, whereas the control group was injected with vehicle in both compartments. […] Time spent in the different compartments was measured by Ethovision (Noldus, Wageningen, Netherlands). An additional experiment was run on animals without injury, showing no mPD5-dependent preference change

[2] = Plasma exposure after s.c. injection, LC-MS; type: in vivo; details: male, C57BL/6N, mouse, sc; for Cmax: at 1 h, read-out: maximal plasma concentration
Description: Three point on the down-slope was determined from 3 points on the elimination phase.

[3] = Chemical stability in PBS for 30 days, HPLC-UV-MS; type: physicochemical
Description: Stability was addressed by […] for four concentration 2, 20, 50 and 200 μM, by leaving […] in PBS at 5 and […] for 30 days followed by HPLC-UV-MS method

[4] = Size exclusion chromatography, self-assembly in solution; type: physicochemical; details: Superdex200 Increase 10/300
Description: Size exclusion chromatography: Size exclusion chromatography was done using an Äkta purifier with a Superdex200 Increase 10/300 column, where 500 μL of […] or […] at the indicated concentration was injected onto the column. Absorbance profile was measured at 280 nm and plotted against elution volume using Graph Pad Prism 8.3.

PICK1 = molecular target: T1, PICK1 (Rattus norvegicus, UniProt Q9EP80); test: Fluorescence polarization competition binding to recombinant PICK1
T1 construct: Full length rat PICK1 (pET41) was prepared as described earlier; inferred from pET41 vector and Glutathione-Sepharose capture) (N, cleaved yes); made in house; host or cells: E. coli BL21-DE3-pLysS
Description: Full length rat PICK1 (pET41) was prepared as described earlier (Madsen et al., 2005). In brief, PICK1 was expressed in BL21-DE3-pLysS cells and grown at 37° C., induced at OD600=0.6 with 1 mM Isopropyl β-D-1-thiogalactopyranoside (IPTG) and grown 16 hrs at 20° C. Cultures were harvested and re-suspended in 50 mM trisaminomethane (Tris), 125 mM NaCl, 2 mM Dithiothreitol (DTT, Sigma), 1% Triton X-100 (Sigma), 20 μg/mL DNAse 1 and 1⁄2 a tablet cOmplete protease inhibitor cocktail (Roche) pr. 1 L culture. The re-suspended pellets were frozen at -80° C. for later purification. […] Each column was sealed and 0.075 U/μL, Novagen® was added for cleavage 0/N at 4° C. under gentle rotation. PICK1 was eluted on ice and absorption at 280 nm was measured on TECAN plate reader or on a NanoDrop3000. The protein concentration was determined using lambert beers law (A=ε[…]=32320 (cm*mol/L)^-1. Fluorescence polarization: Fluorescence polarization was carried out in competition mode at a fixed concentration of protein and tracer (5[…], 5 nM or 5[…], 20 nM), against an increasing concentration of indicated unlabelled peptide. The plate was incubated for 2 hours on ice in a black half-area Corning Black non-binding surface 96-well plate. The fluorescence polarization was measured directly on an Omega POLARstar plate reader using excitation filter at 488 nm and long pass emission filter at 535 nm. The data was plotted using GraphPad Prism 8.3, and fitted to the One site competition, to extract Ki,app value.

T1 sequence (Q9EP80 whole entry): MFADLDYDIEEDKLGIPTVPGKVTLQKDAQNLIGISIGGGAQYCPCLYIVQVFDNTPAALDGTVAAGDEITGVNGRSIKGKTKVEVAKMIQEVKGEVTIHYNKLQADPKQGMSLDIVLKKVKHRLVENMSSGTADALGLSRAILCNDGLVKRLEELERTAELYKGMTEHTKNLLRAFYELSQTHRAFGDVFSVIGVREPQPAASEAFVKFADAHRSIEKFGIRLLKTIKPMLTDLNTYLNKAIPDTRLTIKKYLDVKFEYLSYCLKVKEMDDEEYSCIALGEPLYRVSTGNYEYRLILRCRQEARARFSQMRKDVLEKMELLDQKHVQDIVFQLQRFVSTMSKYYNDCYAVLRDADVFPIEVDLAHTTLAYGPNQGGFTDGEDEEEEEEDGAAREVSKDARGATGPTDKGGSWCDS

CCCCCCCCCCCCCC(=O)N(CCOCCOCCC(=O)N[C@@H](Cc1c[nH]cn1)C(=O)N[C@@H](Cc1c[nH]c2ccccc12)C(=O)N[C@@H](CC(C)C)C(=O)N[C@@H](CCCCN)C(=O)N[C@H](C(=O)O)C(C)C)CCOCCOCCC(=O)N[C@@H](Cc1c[nH]cn1)C(=O)N[C@@H](Cc1c[nH]c2ccccc12)C(=O)N[C@@H](CC(C)C)C(=O)N[C@@H](CCCCN)C(=O)N[C@H](C(=O)O)C(C)C [myr-NPEG4-(HWLKV)2]
place preference, time in drug-paired compartment vs vehicle-treated controls ([1]; CFA-injured mice, s.c. 30 μmol/kg, single exposure): spent significantly more time in the myr-NPEG4-(HWLKV)2-paired compartment | place preference ([1]; mice without injury (Naïve), s.c. 30 μmol/kg, single exposure): no change in preference | abuse liability ([1]; mouse, in vivo): lack of abuse liability | Cmax ([2]; s.c. 3.75 mg/kg (2 μmol/kg)): 1450 ± 106 ng/mL | Cmax ([2]; s.c. 18.8 mg/kg (10 μmol/kg)): 6170 ± 508 ng/mL | Cmax ([2]; s.c. 93.8 mg/kg (50 μmol/kg)): 20300 ± 642 ng/mL | half-life ([2]; summary over doses): 30 to 45 min | Measured Conc. mPD5 ([3]; 30 days @5° C, nominal 2 μM): 0.5 µM | Measured Conc. mPD5 ([3]; 30 days @5° C, nominal 20 μM): 17 µM | Measured Conc. mPD5 ([3]; 30 days @5° C, nominal 50 μM): 49 µM | Measured Conc. mPD5 ([3]; 30 days @5° C, nominal 200 μM): 194 µM | Measured Conc. mPD5 ([3]; 30 days @25° C, nominal 2 μM): 0.4 µM | Measured Conc. mPD5 ([3]; 30 days @25° C, nominal 20 μM): 17 µM | Measured Conc. mPD5 ([3]; 30 days @25° C, nominal 50 μM): 48 µM | Measured Conc. mPD5 ([3]; 30 days @25° C, nominal 200 μM): 203 µM | chemically stable for ([3]; +5° C. and +25° C. in the vehicle compositions): at least 30 days | degradation ([3]; PBS, 30 days, +5° C. and +25° C.): No degradation was observed | purity after storage ([3]; samples with 200 and 50 μM, 30 days in PBS): > 98% | SEC elution compared with unconjugated NPEG4-(HWLKV)2 [4]: eluted at lower elution volume | affinity increase compared to HWLKV (PICK1; FP competition): > 1000 fold | affinity increase compared to NPEG4-(HWLKV)2 (PICK1; FP competition): > 50 fold | Ki (PICK1; tracer 5FAM-NPEG4-(HWLKV)2 5 nM or 5FAM-HWLKV 20 nM (vs HWLKV), 2 hours on ice, read-out: Ki,app): 3 nM
